Entries after “also recorded” stand apart in the source; their conditions may differ.
What was measured:
D. suzukii = assay: Airborne toxicity petri dish assay, adult flies exposed to VOC vapours (FIG. 1A); assay type: in vivo, Drosophila suzukii; conditions: for LD50 (expected concentration at which 50% of the flies die): D. suzukii adults, vapours from solution in paraffin oil, within an hour; for T50 (time at which 50% of the flies were dead) / T50: D. suzukii; for T50: 10% vol; for airborne toxicity/lethality in the initial screen with a high dose (words): VOC at 10 M in paraffin oil, vapour exposure, 1 hour; for specificity of toxicity, D. suzukii versus D. melanogaster: at least at the 3, 5 and 10% vol concentrations
Description: A selection of compounds according to the invention were tested for airborne toxicity to D. suzukii by exposing a population of adult D. suzukii flies to the vapours of the compound using an experimental set up as shown on FIG. 1A.
(§1) In particular, adult flies 2 were exposed to compositions 4 comprising one or more of a selection of VOCs according to the invention or a comparative example, in a petri dish 6. The compositions 4 were loaded onto the lid 6a of the petri dish 6 and the flies were placed into the base 6b of the dish, which was then covered by a sheet of plastic mesh netting 8 to avoid direct contact of the flies 2 with the compositions 4, before replacing the lid 6a.
[…] Four drops of 50 microlitres were dispensed into reinforcement rings (not shown) fixed on the inner surface of the petri dish lid 6a.
The experimental set up used was as described in relation to FIG. 1A.
The data is shown as averages±SEM based on 3 to 6 trials for each condition.

D. biarmipes = assay: Airborne toxicity petri dish assay, adult flies (FIG. 1A); assay type: in vivo; conditions: 10% vol
Excerpt: as §1, with “6a. The onset of paralysis/loss of locomotion control, ultimately resulting in death of the flies 2, was monitored over a period of 1 hour or until all flies 2 were dead, determined when fly wings were vertical (similar to the protocol described in Legal et al. 1992 and 1994).” for “6a.”
(§2) Adult flies of Drosophila species were exposed to a 10% vol solution of (E)-2-hexenal and 10% vol solution of methyl benzoate, in an experimental set up as explained in relation to FIG. 1A. For each VOC, species of the suzukii complex (D. suzukii, D. biarmipes), melanogaster complex (D. melanogaster, D. simulans, D. sechellia), and erecta+yakuba complex (D. erecta, D. yakuba, D. santomea) of the melanogaster species group were compared. 5-10 mixed female and male adults were used per trial. FIGS. 4A and B show the results of these experiments, respectively for (E)-2-hexenal (FIG. 4A) and methyl benzoate (FIG. 4B). The data shown represents the average±SEM of the proportion of dead flies as a function of time, over 3 to 6 assays per condition.

D. erecta = assay: as above; assay type: in vivo; conditions: 10% vol
Excerpt: as §1, with “6a. The onset of paralysis/loss of locomotion control, ultimately resulting in death of the flies 2, was monitored over a period of 1 hour or until all flies 2 were dead, determined when fly wings were vertical (similar to the protocol described in Legal et al. 1992 and 1994).” for “6a.”
as §2

D. sechellia = assay: as above; assay type: in vivo; conditions: 10% vol
Excerpt: as §1, with “6a. The onset of paralysis/loss of locomotion control, ultimately resulting in death of the flies 2, was monitored over a period of 1 hour or until all flies 2 were dead, determined when fly wings were vertical (similar to the protocol described in Legal et al. 1992 and 1994).” for “6a.”
as §2

D. simulans = assay: as above; assay type: in vivo; conditions: 10% vol
Excerpt: as §1, with “6a. The onset of paralysis/loss of locomotion control, ultimately resulting in death of the flies 2, was monitored over a period of 1 hour or until all flies 2 were dead, determined when fly wings were vertical (similar to the protocol described in Legal et al. 1992 and 1994).” for “6a.”
as §2

D. yakuba = assay: as above; assay type: in vivo; conditions: 10% vol
Excerpt: as §1, with “6a. The onset of paralysis/loss of locomotion control, ultimately resulting in death of the flies 2, was monitored over a period of 1 hour or until all flies 2 were dead, determined when fly wings were vertical (similar to the protocol described in Legal et al. 1992 and 1994).” for “6a.”
as §2

[1] = test system: honeybees (Apis mellifera); assay: Airborne toxicity on honeybees in the petri dish assay; assay type: in vivo; conditions: adult bees exposed for one hour; for toxicity to honey bees: 10% vol
Description: The toxicity of (E)-2-hexenal and methyl benzoate volatiles was tested at 100% (pure) and 10% vol. concentrations on honeybees (Apis mellifera) in the petri dish assay of FIG. 1A. Adult bees were exposed for one hour and the proportion of death across all trials (5 trials with each of the pure VOCs and 10 trials for each of the 10% vol VOC assays) was calculated. The results of these experiments are shown on FIG. 8.
Honeybee foragers were obtained from a large bee keeping company (Agroquímica Ollé, http://agroquimicaolle.com). Bees were held in an incubator at 22 degrees for a few days and provided with ad libitum sugar water.

D. suzukii larvae = assay: Fly larva chemotaxis assay; assay type: in vivo, Drosophila suzukii; conditions: 1% vol in paraffin oil, 5 minutes
Description: Larvae were exposed to 1% vol solution of (E)-2-hexenal or methyl benzoate in paraffin oil loaded onto the lid of a petri dish. Their movement was tracked for 5 minutes. A preference index was quantified as the fraction of time larvae spent in a zone around the odour sources. A population of 15 larvae were used per trial and they were placed in the centre of the petri dish at the start of the experiment. The average distance of the larvae to the odour sources was also quantified over time. The results of this analysis are shown on FIG. 9, for each of the conditions where a VOC of the invention was used. A total of 10 trials were performed for each condition, i.e. for each VOC and fly species, and 30 trials were performed for a control condition, for which only the solvent paraffin oil was applied.
Behavioural experiments were performed with third instar foraging larvae. A group of approximately 15 larvae per trial was placed in a Petri dish and monitored during 5 minutes for their chemotactic behaviour, as larvae were exposed to an odour gradient in gas phase emanating from the two odour sources on the lid of the Petri dish. […] Larval behaviour was tracked using a video camera and the data derived was then analysed in Matlab (MathWorks) using custom-made programs to calculate additional time-series variables, and to determine the preference index and the distance of larvae to the source.

[2] = test system: adult flies of D. suzukii; assay: Contact toxicity, adult flies sprayed in a bugdorm; assay type: in vivo, Drosophila suzukii; conditions: for Proportion of dead flies (%): sprayed; for concentration inducing mortality by contact (as low as): sprayed adult D. suzukii
Description: Contact toxicity of E-2-hexenal and methyl benzoate volatiles was tested at different concentrations and in combination with thickeners in different concentration that make E-2-hexenal and methyl benzoate stick to the flies. […] Flies (10-15 mixed males/females) were placed into a bugdorm and sprayed from a distance of 10 cm. Mortality was evaluated after 24 hrs, except for the condition indicated with a star in Table 3, where an exposure time of 50 minutes was used. Thickeners were diluted in aqueous emulsions of deionised water containing 1% vol. Tween 20.

[3] = 0.1% compound + 1% Arabic Gom, 24 hrs
[4] = 0.1% compound + 1% hydroxyethylcellulose, 24 hrs
[5] = 0.1% compound, mortality after 24 hrs
[6] = 1% compound + 1% Arabic Gom, 24 hrs
[7] = 1% compound + 1% hydroxyethylcellulose, 24 hrs
[8] = 5% compound, mortality after 24 hrs
[9] = *1% compound, exposure time of 50 minutes

| SMILES | LD50 (expected concentration at which 50% of the flies die) (D. suzukii) [% vol] | T50 (time at which 50% of the flies were dead) (D. suzukii; 1% concentration) | T50 (D. suzukii) [min] | T50 (time at which 50% of the flies were dead) (D. suzukii; concentration 5% vol) [min] | T50 (time at which 50% of the flies were dead) (D. suzukii; concentration 10% vol) [min] | T50 (time at which 50% of the flies were dead) (D. suzukii; concentration 20% vol) [min] | T50 (time at which 50% of the flies were dead) (D. suzukii; concentration 100% vol) [min] | airborne toxicity/lethality in the initial screen with a high dose (words) (D. suzukii) | specificity of toxicity, D. suzukii versus D. melanogaster (D. suzukii) | T50 (D. biarmipes) [min] | T50 (D. erecta) [min] | T50 (D. sechellia) [min] | T50 (D. simulans) [min] | T50 (D. yakuba) [min] | toxicity to honey bees [1] | larval chemotactic response (D. suzukii larvae) | Proportion of dead flies (%) [2, 3] [%] | Proportion of dead flies (%) [2, 4] [%] | Proportion of dead flies (%) [2, 5] [%] | Proportion of dead flies (%) [2, 6] [%] | further results |
| --- | --- | --- | --- | --- | --- | --- | --- | --- | --- | --- | --- | --- | --- | --- | --- | --- | --- | --- | --- | --- | --- |
| COC(=O)c1ccccc1 [methyl benzoate, Methyl benzoate] | 3 | not lethal | 5.9 | 9.8 | 5.9 | 4.2 | 2.8 | highly toxic; also recorded: showed toxicity | specific toxicity towards D. suzukii | 9.6 | 13.8 | 34 | 9.4 | 11 | low levels of toxicity | strongly repulsive | 30 | 10 | 33 | 30 | Proportion of dead flies (%) [2, 7]: 70%; Proportion of dead flies (%) [2, 8]: 100%; Proportion of dead flies (%) [2, 9]: 30%; concentration inducing mortality by contact (as low as) [2]: 0.1% |
| CCC/C=C/C=O [(E)-2-hexenal] | 3 | not lethal | 4.1 | 9.3 | 4.1 | 1.6 | 1.2 | highly toxic; also recorded: showed toxicity | specific toxicity towards D. suzukii | 15.4 | 5.3 | 22.7 | 9 | 8.7 | low levels of toxicity | attractive chemotactic responses | 80 | 80 | 31 | 10 | lethality as a function of the sex of the flies (D. suzukii; 5% vol in paraffin solution, adult D. suzukii, males vs females): males displayed more sensitivity; toxicity to honey bees (rate) ([1]; 100% (pure) compound): significantly faster rate than pure methyl benzoate; Proportion of dead flies (%) [2, 7]: 50%; Proportion of dead flies (%) [2, 8]: 100%; Proportion of dead flies (%) [2, 9]: 50%; concentration inducing mortality by contact (as low as) [2]: 0.1% |

From patent US11779015B2, “Pesticide compositions” (FUNDACIÓ CENTRE DE REGULACIÓ GENÒMICA, priority 2017, dated 2023)
